From patent publication US9969752B2, “Inhibitors of HIF prolyl hydroxylase” (MERCK SHARP & DOHME CORP., priority 2014, dated 2018)

biological target: T1, Human HIF-PHD2 (Homo sapiens, UniProt Q9GZT9); assay: Inhibition of the hydroxylation of a HIF peptide by PHD2 (time resolved fluorescence, 384-well); format: biochemical; settings: FLAG-tagged full length PHD2; 0.2 μM 2-oxoglutarate, 0.5 μM HIF-1α peptide; 45 minutes at room temperature; read-out: Human HIF-PHD2 IC50
T1 construct: FLAG-tagged full length PHD2 expressed in and purified from baculovirus-infected Sf9 cells; FLAG; made in house; host or cells: baculovirus-infected Sf9 cells
T1 sequence (Q9GZT9 whole entry): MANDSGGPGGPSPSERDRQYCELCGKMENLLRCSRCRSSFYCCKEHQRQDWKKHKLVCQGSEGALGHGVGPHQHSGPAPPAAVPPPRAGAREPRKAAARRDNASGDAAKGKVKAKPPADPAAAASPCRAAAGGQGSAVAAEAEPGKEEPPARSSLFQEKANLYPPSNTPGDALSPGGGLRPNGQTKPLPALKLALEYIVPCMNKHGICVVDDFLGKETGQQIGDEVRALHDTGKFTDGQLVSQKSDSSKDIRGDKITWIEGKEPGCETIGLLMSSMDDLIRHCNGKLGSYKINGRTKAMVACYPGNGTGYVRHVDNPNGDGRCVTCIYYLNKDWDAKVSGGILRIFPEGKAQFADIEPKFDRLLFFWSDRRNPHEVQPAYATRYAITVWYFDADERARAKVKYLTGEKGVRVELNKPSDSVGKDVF

Question: With `N#Cc1ccc2c(O)c(C(=O)NCC(=O)O)c(=O)n3c2c1OCC3c1ccc(C(F)(F)F)cc1` (centres unmarked) [Example 178, Ammonium 2-(10-cyano-7-hydroxy-5-oxo-3-(4-(trifluoromethyl)phenyl)-3,5-dihydro-2H-[1,4]oxazino[2,3,4-ij]quinoline-6-carboxamido)acetate] as the molecule, how does the IC50 read?
Answer: The IC50 was 5.4 nM.

Question: Which IC50 does the source give for `CS(=O)(=O)c1ccc(C2COc3cccc4c(O)c(C(=O)NCC(=O)O)c(=O)n2c34)cc1` (centres unmarked) [Example 183, Ammonium 2-(7-hydroxy-3-(4-(methylsulfonyl)phenyl)-5-oxo-3,5-dihydro-2H-[1,4]oxazino[2,3,4-ij]quinoline-6-carboxamido)acetate] here?
Answer: The IC50 was 15 nM.

Question: `O=C(O)CNC(=O)c1c(O)c2cc(-c3ccn[nH]3)cc3c2n(c1=O)C(c1ccc(C(F)(F)F)cc1)CO3` (centres unmarked) [Example 185, 2-(7-Hydroxy-5-oxo-9-(1H-pyrazol-5-yl)-3-(4-(trifluoromethyl)phenyl)-3,5-dihydro-2H-[1,4]oxazino[2,3,4-ij]quinoline-6-carboxamido)acetic acid] was tested. Which IC50 did it give?
Answer: The IC50 was 12 nM.

same assay, conditions: FLAG-tagged full length PHD2; 0.2 μM 2-oxoglutarate, 0.5 μM HIF-1α peptide; 45 minutes at room temperature; read-out: MS m/z (M + 1)+ and human HIF-PHD2 IC50

Question: With `O=C(O)CNC(=O)c1c(O)c2cc(F)cc3c2n(c1=O)C(c1ccc(C(F)(F)F)cc1)CO3` (centres unmarked) [Example 158, 2-(9-fluoro-7-hydroxy-5-oxo-3-(4-(trifluoromethyl)phenyl)-3,5-dihydro-2H-[1,4]oxazino[2,3,4-ij]quinoline-6-carboxamido)acetic acid] as the molecule, how does the IC50 read?
Answer: The IC50 was 16 nM.

Question: How did the IC50 turn out when `O=C(O)CNC(=O)c1c(O)c2cc(Br)cc3c2n(c1=O)C(c1ccc(C(F)(F)F)cc1)CO3` (centres unmarked) [Example 159, 2-(9-bromo-7-hydroxy-5-oxo-3-(4-(trifluoromethyl)phenyl)-3,5-dihydro-2H-[1,4]oxazino[2,3,4-ij]quinoline-6-carboxamido)acetic acid] was run?
Answer: The IC50 was 47 nM.

Question: With `O=C(O)CNC(=O)c1c(O)c2ccc(Br)c3c2n(c1=O)C(c1ccc(C(F)(F)F)cc1)CO3` (centres unmarked) [Example 161, 2-(10-bromo-7-hydroxy-5-oxo-3-(4-(trifluoromethyl)phenyl)-3,5-dihydro-2H-[1,4]oxazino[2,3,4-ij]quinoline-6-carboxamido)acetic acid] as the molecule, how does the IC50 read?
Answer: Its IC50 is 16 nM.

Question: `O=C(O)CNC(=O)c1c(O)c2c(F)ccc3c2n(c1=O)C(c1ccc(C(F)(F)F)cc1)CO3` (centres unmarked) [Example 162, 2-(8-fluoro-7-hydroxy-5-oxo-3-(4-(trifluoromethyl)phenyl)-3,5-dihydro-2H-[1,4]oxazino[2,3,4-ij]quinoline-6-carboxamido)acetic acid] was tested. Which IC50 did it give?
Answer: Its IC50 is 15 nM.

Question: For `O=C(O)CNC(=O)c1c(O)c2ccc(F)c3c2n(c1=O)C(c1ccc(C(F)(F)F)cc1)CO3` (centres unmarked) [Example 164, 2-(10-fluoro-7-hydroxy-5-oxo-3-(4-(trifluoroMethyl)phenyl)-3,5-dihydro-2H-[1,4]oxazino[2,3,4-ij]quinoline-6-carboxamido)acetic acid], which IC50 is on record?
Answer: Its IC50 is 16 nM.

Question: For `O=C(O)CNC(=O)c1c(O)c2ccc(Cl)c3c2n(c1=O)C(c1ccc(C(F)(F)F)cc1)CO3` (centres unmarked) [Example 165, 2-(10-chloro-7-hydroxy-5-oxo-3-(4-(trifluoromethyl)phenyl)-3,5-dihydro-2H-[1,4]oxazino[2,3,4-ij]quinoline-6-carboxamido)acetic acid], which IC50 is on record?
Answer: The IC50 was 19 nM.

Question: With `O=C(O)CNC(=O)c1c(O)c2cc(Cl)cc3c2n(c1=O)C(c1ccc(C(F)(F)F)cc1)CO3` (centres unmarked) [Example 166, 2-(9-chloro-7-hydroxy-5-oxo-3-(4-(trifluoromethyl)phenyl)-3,5-dihydro-2H-[1,4]oxazino[2,3,4-ij]quinoline-6-carboxamido)acetic acid] as the molecule, how does the IC50 read?
Answer: The IC50 was 16 nM.

Question: How did the IC50 turn out when `O=C(O)CNC(=O)c1c(O)c2cccc3c2n(c1=O)C(c1cccc(C(F)(F)F)c1)CO3` (centres unmarked) [Example 167] was run?
Answer: The IC50 was 74 nM.

Question: For `O=C(O)CNC(=O)c1c(O)c2cccc3c2n(c1=O)C(c1nccs1)CO3` (centres unmarked) [Example 168, 2-(7-hydroxy-5-oxo-3-(thiazol-2-yl)-3,5-dihydro-2H-[1,4]oxazino[2,3,4-ij]quinoline-6-carboxamido)acetic acid], which IC50 is on record?
Answer: The IC50 was 19 nM.

Question: For `O=C(O)CNC(=O)c1c(O)c2c(Br)ccc3c2n(c1=O)C(c1ccc(C(F)(F)F)cc1)CO3` (centres unmarked) [Example 169, 2-(8-bromo-7-hydroxy-5-oxo-3-(4-(trifluoromethyl)phenyl)-3,5-dihydro-2H-[1,4]oxazino[2,3,4-ij]quinoline-6-carboxamido)acetic acid], which IC50 is on record?
Answer: Its IC50 is 16 nM.

Question: For `O=C(O)CNC(=O)c1c(O)c2ccc(Br)c3c2n(c1=O)C(c1cscn1)CO3` (centres unmarked) [Example 170, 2-(10-bromo-7-hydroxy-5-oxo-3-(thiazol-4-yl)-3,5-dihydro-2H-[1,4]oxazino[2,3,4-ij]quinoline-6-carboxamido)acetic acid], which IC50 is on record?
Answer: The IC50 was 5 nM.

Question: For `O=C(O)CNC(=O)c1c(O)c2cccc3c2n(c1=O)C(c1cnc(C(F)(F)F)s1)CO3` (centres unmarked) [Example 171, 2-(7-hydroxy-5-oxo-3-(2-(trifluoromethyl)thiazol-5-yl)-3,5-dihydro-2H-[1,4]oxazino[2,3,4-ij]quinoline-6-carboxamido)acetic acid], which IC50 is on record?
Answer: Its IC50 is 5.4 nM.

Question: Which IC50 does the source give for `O=C(O)CNC(=O)c1c(O)c2c(F)ccc3c2n(c1=O)C(c1cncs1)CO3` (centres unmarked) [Example 172, 2-(8-fluoro-7-hydroxy-5-oxo-3-(thiazol-5-yl)-3,5-dihydro-2H-[1,4]oxazino[2,3,4-ij]quinoline-6-carboxamido)acetic acid] here?
Answer: Its IC50 is 7.3 nM.

Question: With `O=C(O)CNC(=O)c1c(O)c2cccc3c2n(c1=O)C(c1cnco1)CO3` (centres unmarked) [Example 173, 2-(7-hydroxy-3-(oxazol-5-yl)-5-oxo-3,5-dihydro-2H-[1,4]oxazino[2,3,4-ij]quinoline-6-carboxamido)acetic acid] as the molecule, how does the IC50 read?
Answer: Its IC50 is 14 nM.

Question: With `O=C(O)CNC(=O)c1c(O)c2ccc(F)c3c2n(c1=O)C(c1cncs1)CO3` (centres unmarked) [Example 174, 2-(10-fluoro-7-hydroxy-5-oxo-3-(thiazol-5-yl)-3,5-dihydro-2H-[1,4]oxazino[2,3,4-ij]quinoline-6-carboxamido)acetic acid] as the molecule, how does the IC50 read?
Answer: Its IC50 is 3.8 nM.

Question: `O=C(O)CNC(=O)c1c(O)c2c(F)cc(F)c3c2n(c1=O)C(c1cncs1)CO3` (centres unmarked) [Example 175, 2-(8,10-difluoro-7-hydroxy-5-oxo-3-(thiazol-5-yl)-3,5-dihydro-2H-[1,4]oxazino[2,3,4-ij]quinoline-6-carboxamido)acetic acid] was tested. Which IC50 did it give?
Answer: Its IC50 is 2.8 nM.

Question: For `O=C(O)CNC(=O)c1c(O)c2c(Br)ccc3c2n(c1=O)C(c1cncs1)CO3` (centres unmarked) [Example 176, 2-(8-bromo-7-hydroxy-5-oxo-3-(thiazol-5-yl)-3,5-dihydro-2H-[1,4]oxazino[2,3,4-ij]quinoline-6-carboxamido)acetic acid], which IC50 is on record?
Answer: Its IC50 is 7.7 nM.

Question: `O=C(O)CNC(=O)c1c(O)c2ccc(Br)c3c2n(c1=O)C(c1cncs1)CO3` (centres unmarked) [Example 177, 2-(10-bromo-7-hydroxy-5-oxo-3-(thiazol-5-yl)-3,5-dihydro-2H-[1,4]oxazino[2,3,4-ij]quinoline-6-carboxamido)acetic acid] was tested. Which IC50 did it give?
Answer: The IC50 was 5.4 nM.

Question: Which IC50 does the source give for `N#Cc1cc2c3c(c1)c(O)c(C(=O)NCC(=O)O)c(=O)n3C(c1ccc(C(F)(F)F)cc1)CO2` (centres unmarked) [Example 179, ammonium 2-(9-cyano-7-hydroxy-5-oxo-3-(4-(trifluoromethyl)phenyl)-3,5-dihydro-2H-[1,4]oxazino[2,3,4-ij]quinoline-6-carboxamido)acetate] here?
Answer: The IC50 was 4.6 nM.

Question: Which IC50 does the source give for `N#Cc1ccc2c3c1c(O)c(C(=O)NCC(=O)O)c(=O)n3C(c1ccc(C(F)(F)F)cc1)CO2` (centres unmarked) [Example 180, ammonium 2-(8-cyano-7-hydroxy-5-oxo-3-(4-(trifluoromethyl)phenyl)-3,5-dihydro-2H-[1,4]oxazino[2,3,4-ij]quinoline-6-carboxamido)acetate] here?
Answer: The IC50 was 2.9 nM.

Question: `N#Cc1ccc(C2COc3cccc4c(O)c(C(=O)NCC(=O)O)c(=O)n2c34)cc1` (centres unmarked) [Example 181, ammonium 2-(3-(4-cyanophenyl)-7-hydroxy-5-oxo-3,5-dihydro-2H-[1,4]oxazino[2,3,4-ij]quinoline-6-carboxamido)acetate] was tested. Which IC50 did it give?
Answer: Its IC50 is 10 nM.

Question: How did the IC50 turn out when `N#Cc1ccc2c(O)c(C(=O)NCC(=O)O)c(=O)n3c2c1OCC3c1cncs1` (centres unmarked) [Example 182, ammonium 2-(10-cyano-7-hydroxy-5-oxo-3-(thiazol-5-yl)-3,5-dihydro-2H-[1,4]oxazino[2,3,4-ij]quinoline-6-carboxamido)acetate] was run?
Answer: Its IC50 is 1.4 nM.

Question: Which IC50 does the source give for `CS(=O)(=O)c1cc2c3c(c1)c(O)c(C(=O)NCC(=O)O)c(=O)n3C(c1ccc(C(F)(F)F)cc1)CO2` (centres unmarked) [Example 184, ammonium 2-(7-hydroxy-9-(methylsulfonyl)-5-oxo-3-(4-(trifluoromethyl)phenyl)-3,5-dihydro-2H-[1,4]oxazino[2,3,4-ij]quinoline-6-carboxamido)acetate] here?
Answer: The IC50 was 19 nM.
